Assay results from US8143316B2, “Method for treating peripheral vascular diseases” (Sucampo AG, priority 2005, dated 2012).

Experiments:
Male Wistar rats = assay: Decreased peripheral microcirculation (cutaneous tissue blood flow) induced by ET-1 infusion in rats; type: in vivo, rat; settings: 100 μg/kg i.v.; for blood pressure: ET-1 infused rats; for cutaneous tissue blood flow: flow decreased by ET-1 infusion, up to 60 min after administration, vs vehicle
Description: Male Wistar rats (7-week-old) were used in this study. Animals were anesthetized by intraperitoneal injection of thiobutabarbital sodium (80 mg/kg). Body temperature (rectal temperature) of the animals was maintained at approximately 37° C. throughout the experiment with a heating pad. After depilating the instep of the right hind limb with a depilatory cream, the cutaneous tissue blood flow was measured continuously using a non-contact type laser Doppler flowmeter (FLO-N1, Omegawave Inc., Japan). For measurements of mean arterial blood pressure, a polyethylene catheter placed in the left femoral artery was connected to a pressure transducer (TP-400T, Nihon Koden Inc., Japan) coupled to an amplifier (AP-641G, Nihon Koden Inc., Japan). The cutaneous tissue blood flow and blood pressure were recorded and analyzed using a computer system (HEM Ver. 3.5, Notocord Systems, France). Endothelin-1 (ET-1) was infused into the femoral artery at a rate of 200 pmol/kg/min with a syringe pump via the polyethylene catheter inserted retrogradely into the caudal epigastric artery branched from the right femoral artery for 15 minutes. Infusion rate of ET-1 was decreased to 20 pmol/kg/min after the termination of 200 pmol/kg/min infusion, and the decreased amount of ET-1 infusion was kept until the end of this study. The cutaneous tissue blood flow was decreased by the infusion of ET-1 into the femoral artery. When the cutaneous tissue blood flow was reached a new steady level (25 to 50 minutes after starting ET-1 infusion), vehicle or each test compound solution was administered to the animals over 2 minutes in a volume of 1 mL/kg via the polyethylene catheter placed in the left femoral vein. The administered amount of the test compound was 100 μg/kg. The cutaneous tissue blood flow and blood pressure were measured continuously and recorded every 5 minutes for 60 minutes after the administration of vehicle or each test solution.

[1] = test system: male Japanese white rabbits; assay: Intraocular pressure after topical eye application in rabbits; type: in vivo, rabbit; settings: 0.0016% topical
Description: Eight male Japanese white rabbits (Std: JW/CSK) weighing approximately 2.5-3.5 kg were used in this study. The same eye of each animal was treated with the test compounds and the other eye was with the vehicle consistently throughout the study with a washout period between each treatment. Thirty microliters of each test compound solution was applied topically to one eye of each animal using a micropipette (Pipetman, Gilson, Inc., France). The contralateral control eye received an equal volume of the vehicle. The animals were dosed at approximately the same time each morning. After the animals were restrained in a holder, one drop of topical anesthetic (0.4% oxybuprocaine hydrochloride) was applied to both eyes and the IOP was measured with an applanation pneumatonometer (Model 30 Classic™, Mentor O & O, Inc., USA) before dosing, and at 1, 2, 4, 6, and 8 hours after dosing.

[2] = test system: streptozotocin-induced diabetic rats; assay: Cutaneous tissue blood flow in streptozotocin-induced diabetic rats; type: in vivo, rat
Description: Diabetes was induced by single intravenous injection of 50 mg/kg streptozotocin (STZ) in 7-week-old male Crl: CD(SD) rats. Animals with plasma glucose levels 400 mg/dL or more on day 19 after the STZ treatment were used in this study. Three weeks after the STZ injection, animals were anesthetized by an intraperitoneal injection of thiobutabarbital sodium. Body temperature (rectal temperature) of the animals was maintained at approximately 37° C. throughout the experiment with a heating pad After depilating the instep of the right hind limb with a depilatory cream, the cutaneous tissue blood flow (CTBF) was measured continuously using a non-contact type laser Doppler flowmeter (FLO-N1, Omegawave Inc., Japan). The blood pressure and heart rate were simultaneously monitored. Compound A or the vehicle was intravenously administered to the animals over 10 min.

[3] = test system: platelet-rich plasma (PRP); assay: ADP-induced platelet aggregation in rabbit platelet-rich plasma; type: cell-based; settings: for Maximum aggregation: ADP-induced, mean ± S.E. of 3 rabbits; for Inhibition of platelet aggregation: vs vehicle control (100%)
Description: Four months old male Kbs: J.W. rabbits were housed in aluminum cages in an animal room controlled for roomtemperature (23-24° C.), relative humidity (55-74%), ventilation rate (10-20 times/hour) and 12-hour light/dark cycle (lighting: 7:00 a.m.-7:00 p.m.). The animals were feeded with solid diet for rabbits (120 g/animal/day) and water ad libitum from automatic eatering system. The animals were subjected to at least 6 days of quarantine and acclimation. During the period, their body weight measurements and general sign observations were conducted, and the animals judged to be in good health were used in this study.
A cannula was inserted into the common carotid artery of the rabbit under inhalation anesthesia of isoflurane. Nine parts of the blood samples obtained through the cannula were mixed with 1 part of 3.8 w/v % sodium citrate. After centrifugation of the blood samples for 10 min at 1,000 rpm, platelet-rich plasma (PRP) was collected from the top layer. Then the bottom layer was further centrifuged for 15 min at 3,000 rpm, and platelet-poor plasma (PPP) was collected from the top layer. The platelet counts of the PRP and PPP fractions were performed using an ADVIA120 Hematology system (ADVIA120, Bayer Medical Ltd.). The PRP fraction was diluted with the PPP fraction so that the platelet counts was adjusted to approximately 30×10^4 cells/μL. Thus obtained PRP (0.178 mL) was put into a cuvet, and pre-incubated on a warm bath at 37° C. for about 5 minutes. Test solution (0.022 mL) containing prostaglandin E1 or Compound A was added to the PRP. One minute later, 25 μM ADP solution (0.022 mL) was added and the degree of platelet aggregation was measured using a platelet aggregation measuring device (NBS hematolaser, Nikko Bioscience Inc.). For each test solution, a duplicate test was performed on the blood samples from 3 animals. Inhibition rate (%) was evaluated by comparing the aggregation in the test substance group with that in the vehicle control group (100%).

Male GK/Jcl rats = assay: Cutaneous tissue blood flow in spontaneous diabetes rats; type: in vivo, rat
Description: Male GK/Jcl rats, a spontaneous model of non-insulin-dependent diabetes, were anesthetized by an intraperitoneal injection of thiobutabarbital sodium. Body temperature (rectal temperature) of the animals was maintained at approximately 37° C. throughout the experiment with a heating pad. After depilating the instep of the right hind limb with a depilatory cream, the cutaneous tissue blood flow (CTBF) was measured before (base line) and 20 minutes after intravenous administration of Compound A or the vehicle using a non-contact type laser Doppler flowmeter (FLO-N1, Omegawave Inc., Japan). Data was expressed as % compared with the base line cutaneous tissue blood flow.

Male Crl: CD(SD) rats = assay: Cutaneous tissue blood flow in anesthetized rats; type: in vivo, rat
Description: Male Crl: CD(SD) rats were anesthetized by an intraperitoneal injection of thiobutabarbital sodium. Body temperature (rectal temperature) of the animals was maintained at approximately 37° C. throughout the experiment with a heating pad. After depilating the instep of the right hind limb with a depilatory cream, the cutaneous tissue blood flow CTBF) was measured before and 30 minutes after intravenous administration of Compound C (11-deoxy-13,14-dihyrdo-16,16-difluoro-PGE1) or the vehicle using a non-contact type laser Doppler flowmeter (FLO-N1, Omegawave Inc., Japan). The blood pressure and heart rate were also monitored.

Structure (SMILES): CCCCC(F)(F)C(=O)CCC1CCC(=O)C1CCCCCCC(=O)O (centres unmarked) [Compound A, 11-deoxy-13,14-dihydro-15-keto-16,16-difluoro-PGE1]
- blood pressure (Male Wistar rats): no significant effect
- cutaneous tissue blood flow (Male Wistar rats): significantly increased
- IOP, 1 hr after administration ([1]; 30 μL, 1 hr, mean ± SE, n=8): 13.1 ± 0.6 mmHg
- IOP, 2 hr after administration ([1]; 30 μL, 2 hr, mean ± SE, n=8): 14.5 ± 0.6 mmHg
- IOP, 4 hr after administration ([1]; 30 μL, 4 hr, mean ± SE, n=8): 13.8 ± 0.8 mmHg
- IOP, 6 hr after administration ([1]; 30 μL, 6 hr, mean ± SE, n=8): 15.1 ± 1.0 mmHg
- IOP, 8 hr after administration ([1]; 30 μL, 8 hr, mean ± SE, n=8): 17.5 ± 1.3 mmHg
- IOP, Pre ([1]; 30 μL, before dosing (baseline), mean ± SE, n=8): 17.0 ± 0.8 mmHg
- intraocular pressure (in words) ([1]; vs vehicle-treated contralateral eye): significantly lowered
- Cutaneous Tissue Blood Flow, Pre ([2]; 30 μg/kg i.v. over 10 min, before dosing (baseline), mean ± S.E., n=5): 4.8 ± 0.5 mL/min/100 g tissue
- blood pressure (BP) ([2]; STZ diabetic rats, i.v.): no effects
- heart rate ([2]; STZ diabetic rats, i.v.): no effects
- cutaneous tissue blood flow (in words) ([2]; STZ diabetic rats, i.v., compared with vehicle): significantly increased
- Maximum aggregation ([3]; 1 × 10^−5 g/mL): 36.8 ± 3.1%
- Inhibition of platelet aggregation ([3]; 1 × 10^−5 g/mL): −1.4%
- Maximum aggregation ([3]; 1 × 10^−6 g/mL): 36.2 ± 4.0%
- Inhibition of platelet aggregation ([3]; 1 × 10^−6 g/mL): 0.3%
- Maximum aggregation ([3]; 1 × 10^−7 g/mL): 35.2 ± 3.9%
- Inhibition of platelet aggregation ([3]; 1 × 10^−7 g/mL): 3.0%
- effect on platelet aggregation (in words) ([3]; up to the highest concentration (1×10^−5 g/mL) tested): no effect
- Cutaneous Tissue Blood Flow compared with the base line (Male GK/Jcl rats; 20 μg/kg i.v., 20 minutes after administration, mean ± S.E., n=5): 122 ± 1 %
- cutaneous tissue blood flow (in words) (Male GK/Jcl rats; spontaneous diabetes rats, i.v., compared with vehicle): significantly increased

Structure (SMILES): CCCCC[C@H](O)/C=C/[C@H]1[C@H](O)CC(=O)[C@@H]1CCCCCCC(=O)O [PGE1, prostaglandin E1, reference compound]
- Maximum aggregation ([3]; 1 × 10^−6 g/mL): 4.0 ± 0.7 %
- Inhibition of platelet aggregation ([3]; 1 × 10^−6 g/mL): 89.0%
- Maximum aggregation ([3]; 1 × 10^−7 g/mL): 3.2 ± 0.6 %
- Inhibition of platelet aggregation ([3]; 1 × 10^−7 g/mL): 91.2%
- Maximum aggregation ([3]; 1 × 10^−8 g/mL): 28.7 ± 3.6%
- Inhibition of platelet aggregation ([3]; 1 × 10^−8 g/mL): 20.9%

Structure (SMILES): CCCCC(F)(F)C(O)CCC1CCC(=O)C1CCCCCCC(=O)O (centres unmarked) [Compound C, 11-deoxy-13,14-dihyrdo-16,16-difluoro-PGE1]
- Cutaneous Tissue Blood Flow, After administration (Male Crl: CD(SD) rats; 10 μg/kg i.v., 30 minutes after administration, mean ± S.E., n=5): 13.0 ± 0.2 mL/min/100 g tissue
- Cutaneous Tissue Blood Flow, Before administration (Male Crl: CD(SD) rats; 10 μg/kg i.v., before administration (baseline), mean ± S.E., n=5): 11.6 ± 0.3 mL/min/100 g tissue
- blood pressure (Male Crl: CD(SD) rats; i.v.): no effects
- heart rate (Male Crl: CD(SD) rats; i.v.): no effects
- cutaneous tissue blood flow (in words) (Male Crl: CD(SD) rats; i.v., compared with vehicle treatment): significantly increased

Structure (SMILES): CCCCC(F)(F)C(=O)CCC1CCC(=O)C1CCCCCCC(=O)OC(C)C (centres unmarked) [Compound B, 11-deoxy-13,14-dihydro-15-keto-16,16-difluoro-PGE1 isopropyl ester]
- blood pressure (Male Wistar rats): no significant effect
- cutaneous tissue blood flow (Male Wistar rats): significantly increased
